Experiments:
[1] = system: skin fibroblast; details: extracellular concentration 10 μg/ml; cited from earlier work
[2] = intraperitoneally administered; Kaku et al. 1975; cited from earlier work
[3] = system: spinal cord injury; details: continuous intravenous administration 60 pg/day; cited from earlier work
[4] = system: skin epidermal keratinocytes or hornified cells; details: extracellular fluid concentration 100 μg/ml; cited from earlier work
[5] = system: morsus of human oral mucosa; assay: Therapy of morsus of human oral mucosa by external application; type: in vivo; details: propet containing 0.00001% by weight
From the text: Next, one of the present inventors had confirmed by themself whether or not propet containing low concentration of ginsenoside Rb1 was effective to morsus of mouth or oral mucosa. On May 2nd, 2000, at about 2:00 p.m. after dental treatment, […] had started to have late lunch before waking up from infiltration anesthesia of the left third branch of the trigeminal nerve and periodontal anesthesia due to heavy hunger. They had bitten themself three times their own left lip mucosa and since they felt iron taste (blood) in their oral cavity, as a result of confirmation of their morsus by a mirror, they found at least five regions of erosion or defect of mouth or oral mucosa, further hematocele or hematoma was found at one spot. Since they concluded that if it (i.e. morsus of oral mucosa) was allowed to leave as it is, aphthous stomatitis would be complicated within several days to require a week to ten days for complete cure, propet containing a low concentration (0.00001% by weight) of ginsenoside Rb1, which had been confirmed to show effectiveness and efficacy by animal experiments of the present inventors, was applied with small amount to the five regions with erosion or defect of oral mucosa and one hematocele or hematoma region. External or topical application was performed before and after meal and before and after eating between meals. The external or topical application was performed after tooth brushing was performed as much as possible after the meal. Namely, propet containing 0.00001% by weight of ginsenoside Rb1 was applied externally or topically onto morsus regions of the labial mucosa separately 6-10 times a day. FIG. 7 is a photograph in place of drawing.
Next, one of inventors of the present invention (Sakanaka) had bitten again left lower labial mucosa on May 26, 2000 during lunch, and propet containing 0.00001% by weight of ginsenoside Rb1 was applied topically or externally onto the morsus region. A photograph just after morsus is shown in left of FIG. 8, and a photograph at 72 hours after morsus is shown in right of FIG. 8.
Next, one of the present inventors had confirmed by themself whether propet containing low concentrations of ginsenoside Rb1 was effective for morsus of mouth mucosa or not. On May 2nd, 2000, at about 2:00 p.m. after dental treatment, […] had started to have late lunch before awakening from infiltration anesthesia of the left third division of the trigeminal nerve and periodontal anesthesia due to heavy hunger. They had bitten themself three times their own left lip mucosa and they felt iron taste (blood) in their oral cavity. As a result of confirmation of their morsus by a mirror, they found at least five regions of erosion or defect of mouth mucosa, further hematoma was found at one spot. Since they concluded that if the morsus was allowed to leave as it was, aphthous stomatitis would be developed as a complication to require a week to ten days for complete cure, a small amount of propet containing a low concentration (0.00001% by weight) of ginsenoside Rb1, which had been confirmed to show effectiveness and efficacy by animal experiments of the present inventors, was topically or externally applied to the five regions with erosion or defect of oral mucosa and to one hematoma region. External or topical application was performed before and after meal and before and after eating between meals. […]

[6] = system: Bcl-xL gene; details: continuous intravenous administration 60 μg/day; cited from earlier work

CC(C)=CCC[C@](C)(O[C@@H]1O[C@H](CO[C@@H]2O[C@H](CO)[C@@H](O)[C@H](O)[C@H]2O)[C@@H](O)[C@H](O)[C@H]1O)[C@H]1CC[C@]2(C)[C@@H]1[C@H](O)C[C@@H]1[C@@]3(C)CC[C@H](O[C@@H]4O[C@H](CO)[C@@H](O)[C@H](O)[C@H]4O[C@@H]4O[C@H](CO)[C@@H](O)[C@H](O)[C@H]4O)C(C)(C)[C@@H]3CC[C@]12C [ginsenoside Rb1]
production of elastin [1]: can promote production of elastin in the skin fibroblast | LD50 [2]: 1110 mg/kg | standing up of bed-ridden rats with spinal cord injury [3]: could stand up bed-ridden rats | division and proliferation of skin epidermal keratinocytes or hornified cells [4]: can promote division and proliferation of skin epidermal keratinocytes or hornified cells | pain in the wounded regions [5]: markedly reduced | epithelization of morsus regions of labial mucosa (FIG. 7) ([5]; 6-10 times a day, 96 hours after morsus, one person): almost complete epithelization | complication of aphthous stomatitis after morsus ([5]; first case): no complication of aphthous stomatitis was observed | cure of morsus (FIG. 8) ([5]; second case, 72 hours after morsus): rapidly cured without developing aphthous stomatitis as a complication | time in which morsus (wound) healing is markedly promoted ([5]; such morsus usually requires at least 7 to 10 days): ≤ 96 h | expression of cell death-suppressing factor Bcl-xL gene in brain and nervous tissues [6]: caused an increase in the expression

Reference: patent US20030104079A1, “Skin tissue regeneration promoters comprising ginsenoside Rb1” (Japan Science and Technology Corporation, Japan, priority 2000, published 2003)
